Results taken from patent US9695173B2, “Pharmaceutical compositions for the treatment of capillary arteriopathy” (SINOXA PHARMA GMBH, priority 2006, dated 2017).

Tests used:
Assay type in all cases: in vivo, rat
male Sprague-Dawley rats [1] = assay: Monocrotaline pulmonary hypertension model, treatment from day 14: hydroxyproline (collagen) content of the lung; settings: monocrotaline 60 mg/kg s.c. day 1; 0.25 mg/kg Lisuride bid or 2.5 mg/kg Terguride bid, days 14-28; right lung day 28; averages ± SEM, N=6
Procedure: (§1) 1 monocrotaline (60 mg/kg; Sigma) was administered to rats on the day of the experiment. For this purpose, the substance was dissolved in 0.5 molar hydrochloric acid and the pH value was then adjusted to 7.4 with 0.5 molar sodium hydroxide solution. The solution was administered to male Sprague-Dawley rats as a single subcutaneous injection in a dose of 60 mg/kg. The same volume of isotonic saline solution was administered to control animals.
(§2) The dosage specifications in this case relate to the free base of the substances. The substances were used as hydrogenmaleate salt or free base. They were introduced into distilled water in the presence of traces of ascorbic acid and administered by oesophageal tube in the morning and in the evening in a volume of 2 mL. The same quantity of water was administered to control animals.
After the pressure measurements had been performed, the rats were perfused with physiological saline solution. The right lung was removed, deep-frozen and processed for determining the collagen content. To this end, the tissue was first homogenized and analyzed, drawing on the method by Berg (Meths Enzymol. 82, 372 (1982)). […] The color complex created was measured photometrically at 560 nm and the hydroxprolin content of the samples was determined by means of a calibration curve. […]

male Sprague-Dawley rats [2] = assay: Monocrotaline pulmonary hypertension model, treatment from day 14: right ventricular and systemic pressure
Procedure: as §1, §2
(§3) On day 28 of the experiment, 2 hours after the last administration of the substance, the animals were put under general anesthesia using pentobarbital. Then, a tracheostomy was performed on the animals and the animals were respirated at 10 ml/kg and a frequency of […] (SAR830A/P; IITC). Anesthesia was maintained by inhalation of isoflurane.
The mean arterial pressure and the right ventricular systolic blood pressure were determined. The systemic arterial pressure was measured using a Millar catheter in the left carotid artery. A millar catheter with a pressure sensor (Millar Instruments, model SPR-534) was inserted through the right jugular vein and pushed up to the right ventricle of the heart and used for measuring the right ventricular pressure (RVSP). The signal was amplified by means of a HSE coupler Series 500 and supplied to a registration unit for evaluation.

male Sprague-Dawley rats [3] = assay: Monocrotaline pulmonary hypertension model, treatment days 1-28: muscularization of arterial capillary vessels of the lung; settings: 0.4 mg/kg Terguride bid (table), lung arterial capillary vessels 20-50 μm, averages ± SD, N=4
Procedure: as §1
(§4) […] Terguride was introduced into distilled water in the presence of traces of ascorbic acid and administered by oesophageal tube in the morning and in the evening in a volume of 2 mL. The same quantity of physiological saline solution was administered to control animals.
The lungs were removed, fixated in formalin and embedded in paraffin. Paraffin sections were obtained and an immunohistochemical double staining was carried out according to standard protocols. Smooth muscle cells of the vessels were stained with an antibody against actin and the endothelium was stained by means of antibodies against von Willebrand factor. […] The vessels were subdivided into 3 categories: non-muscularized vessels with 20%, partially muscularized vessels with >20%, but <70%, and fully muscularized vessels with >70% lining of the cross-section of the vessel with smooth muscle cells.

male Sprague-Dawley rats [4] = assay: Monocrotaline pulmonary hypertension model, treatment days 1-28: right ventricular hypertrophy; settings: 0.4 mg/kg Terguride bid (table), dry weights, averages ± SD, N=4
Procedure: as §1, §4
After the pressure measurements had been performed, the rats were perfused with physiological saline solution. The heart was removed and prepared by dissection of the right ventricle, the septum as well as the left ventricle of each heart. The tissue preparations were freeze-dried and the dry weights were then determined by weighing out. For each individual animal, the quotient: weight of the right ventricle/weight of the left ventricle and septum (RV/LV+S) was determined from these animals as a measure for right ventricular hypertrophy.

male Sprague-Dawley rats [5] = assay: Monocrotaline pulmonary hypertension model, treatment days 1-28: RVSP and SAP; settings: monocrotaline 60 mg/kg s.c. day 1, 0.4 mg/kg Terguride bid (table), measured day 28, averages ± SD, N=4
Procedure: as §1, §4, §3
The mean arterial pressure and the right ventricular systolic blood pressure were determined. The systemic arterial pressure was measured using a Millar catheter in the left carotid artery. […]

[6] = monocrotaline 60 mg/kg s.c. day 1, 0.25 mg/kg Lisuride bid or 2.5 mg/kg Terguride bid by oesophageal tube, days 14-28, measured day 28, averages ± SEM, N=6

| SMILES | Hydroxyproline content of the lung (male Sprague-Dawley rats [1]) | RVPsys (systolic pressure in the right ventricle) (male Sprague-Dawley rats [2]; [6]) | Increase in pressure in the right ventricle (in words) (male Sprague-Dawley rats [2]; monocrotaline rats, therapy started 14 days after monocrotaline) | Proportion of fully muscularized vessel (male Sprague-Dawley rats [3]) | Proportion of non-muscularized vessel (male Sprague-Dawley rats [3]) | Proportion of partially muscularized vessel (male Sprague-Dawley rats [3]) | RV/LV + S (weight of right ventricle vs. weight of left ventricle and septum) (male Sprague-Dawley rats [4]) | RVSP (right ventricular systolic pressure) (male Sprague-Dawley rats [5]) | SAP (systemic arterial pressure) (male Sprague-Dawley rats [5]) | SAP (systemic arterial pressure) (male Sprague-Dawley rats [2]; [6]) |
| --- | --- | --- | --- | --- | --- | --- | --- | --- | --- | --- |
| CCN(CC)C(=O)N[C@H]1C=C2c3cccc4[nH]cc(c34)C[C@H]2N(C)C1 [Lisuride, 3-(9,10-didehydro-6-methylergoline-8alpha-yl)-1,1-diethylurea] | 3.3 ± 0.8 ug/g protein | 43 ± 7 mmHg | reduces |  |  |  |  |  |  |  |
| CCN(CC)C(=O)N[C@H]1C[C@@H]2c3cccc4[nH]cc(c34)C[C@H]2N(C)C1 [Terguride, (+)-1,1-diethyl-3-(6-methyl-8α-ergolinyl)-urea] | 2.7 ± 1.2 ug/g protein | 39 ± 3 mmHg |  | 21.3 ± 12.6% | 1.9 ± 1.6% | 57.8 ± 14.6% | 0.33 ± 0.08 | 36.4 ± 3.6 mmHg | 97.5 ± 15.2 mmHg | 111 ± 7 mmHg |
